Reference: PubChem BioAssay AID336 (DTP/NCI, 2004)
Several values for one entry are separate records, joined by “and”; a condition that tells them apart may be missing. Identical values can stand only once. Toxic doses and inconclusive results are not listed.

Tested on: BDF1 mice, P388/VCR leukemia ip, median survival T/C
Assay: NCI In Vivo Anticancer Drug Screen. Data for tumor model P388 Leukemia resistant to Vincristine; NSC 67574 (intraperitoneal) in B6D2F1 (BDF1) mice
Conditions: endpoint: median survival time, higher = longer survival
Experimental: The antitumor activity of compounds was measured in mice bearing transplantable tumors. Survival or tumor size were measured and the results are expressed as the measurement made in the treated group (T) divided by the measurement made in the vehicle treated control group (C). The tumor model used in this assay is P388 Leukemia resistant to Vincristine; NSC 67574 (intraperitoneal) in B6D2F1 (BDF1) mice

[1] = dose: 5.0 mg/kg/injection, schedule: Q01DX010 (ip), vehicle: saline
[2] = dose: 12.5 mg/kg/injection, schedule: Q01DX010 (ip), vehicle: saline
[3] = dose: 25.0 mg/kg/injection, schedule: Q01DX010 (ip), vehicle: saline
[4] = dose: 1.5 mg/kg/injection, schedule: Q01DX010 (ip), vehicle: saline
[5] = dose: 3.0 mg/kg/injection, schedule: Q01DX010 (ip), vehicle: saline
[6] = dose: 6.0 mg/kg/injection, schedule: Q01DX010 (ip), vehicle: saline
[7] = dose: 12.0 mg/kg/injection, schedule: Q01DX010 (ip), vehicle: saline
[8] = dose: 2.5 mg/kg/injection, schedule: Q01DX010 (ip), vehicle: saline
[9] = dose: 62.5 mg/kg/injection, schedule: Q01DX010 (ip), vehicle: saline
[10] = dose: 125.0 mg/kg/injection, schedule: Q01DX010 (ip), vehicle: saline
[11] = dose: 8.0 mg/kg/injection, schedule: Q01DX010 (ip), vehicle: saline
[12] = dose: 16.0 mg/kg/injection, schedule: Q01DX010 (ip), vehicle: saline
[13] = dose: 32.0 mg/kg/injection, schedule: Q01DX010 (ip), vehicle: saline
[14] = dose: 64.0 mg/kg/injection, schedule: Q01DX010 (ip), vehicle: saline
[15] = dose: 50.0 mg/kg/injection, schedule: Q01DX010 (ip), vehicle: saline
[16] = dose: 100.0 mg/kg/injection, schedule: Q01DX010 (ip), vehicle: saline
[17] = dose: 200.0 mg/kg/injection, schedule: Q01DX010 (ip), vehicle: saline

Question: Which T/C [1] does the source give for `N#[N+]c1cnc([O-])[nH]c1=O` here?
Answer: 156 % of control

Question: How did the T/C (dose: 108.0 mg/kg/injection, schedule: Q04DX003 (ip), vehicle: Klucel (hydroxypropylcellulose) (HPC)) turn out when `CC(CN1CC(=O)NC(=O)C1)N1CC(=O)NC(=O)C1` (stereo not given) was run?
Answer: 120 % of control

Question: What about the T/C (dose: 240.0 mg/kg/injection, schedule: Q04DX003 (ip), vehicle: Klucel (hydroxypropylcellulose) (HPC)) of the same molecule?
Answer: 151 % of control

Question: What about the T/C (dose: 300.0 mg/kg/injection, schedule: Q04DX003 (ip), vehicle: alkali diluted with saline) of the same molecule?
Answer: 174 % of control

Question: And the T/C (dose: 400.0 mg/kg/injection, schedule: Q04DX003 (ip), vehicle: Klucel (hydroxypropylcellulose) (HPC))?
Answer: 180 % of control

Question: What about the T/C (dose: 500.0 mg/kg/injection, schedule: Q04DX003 (ip), vehicle: alkali diluted with saline) of the same molecule?
Answer: 109 % of control

Question: Which results are given for `COS(C)(=O)=O`?
Answer: T/C [2]: 123 % of control; T/C [3]: 103 % of control

Question: What does the source list for `CCC1(O)CC2CN(CCc3c([nH]c4ccccc34)C(C(=O)OC)(c3cc4c(cc3OC)N(C)C3C(O)(C(=O)NCCO)C(O)C5(CC)C=CCN6CCC43C65)C2)C1` (stereo not given)?
Answer: T/C (dose: 500.0 micrograms/kg/injection, schedule: Q04DX003 (ip), vehicle: saline): 107 % of control; T/C (dose: 1000.0 micrograms/kg/injection, schedule: Q04DX003 (ip), vehicle: saline): 106 % of control; T/C (dose: 2000.0 micrograms/kg/injection, schedule: Q04DX003 (ip), vehicle: saline): 105 % of control; T/C (dose: 4000.0 micrograms/kg/injection, schedule: Q04DX003 (ip), vehicle: saline): 108 % of control

Question: How did the T/C (dose: 20.0 mg/kg/injection, schedule: Q04DX003 (ip), vehicle: Klucel (hydroxypropylcellulose) (HPC)) turn out when `O=C(Nc1ccc(C2=NCCCN2)cc1)c1ccc(C(=O)Nc2ccc(C3=NCCCN3)cc2)cc1` was run?
Answer: 158 % of control

Question: What about the T/C (dose: 33.3 mg/kg/injection, schedule: Q04DX003 (ip), vehicle: Klucel (hydroxypropylcellulose) (HPC)) of the same molecule?
Answer: 101 % of control

Question: Which results are given for `Nc1ncnc2[nH]ncc12`?
Answer: T/C [4]: 88 % of control; T/C [5]: 88 % of control; T/C [6]: 88 % of control and 103 % of control; T/C [7]: 119 % of control

Question: Which T/C [1] does the source give for `Cc1cc(N(CCCl)CCCl)ccc1N=Nc1ccccc1C(=O)O` here?
Answer: 91 % of control and 112 % of control

Question: What does the source list for `O=NN(CCCl)C(=O)NCCCl`?
Answer: T/C (dose: 6.25 mg/kg/injection, schedule: Q01DX010 (ip), vehicle: saline): 300 % of control; T/C [2]: 188 % of control and 300 % of control; T/C (dose: 13.0 mg/kg/injection, schedule: Q01DX001 (ip), vehicle: saline): 151 % of control; T/C (dose: 21.6 mg/kg/injection, schedule: Q01DX001 (ip), vehicle: saline): 164 % of control; T/C (dose: 36.0 mg/kg/injection, schedule: Q01DX001 (ip), vehicle: saline): 212 % of control

Question: What does the source list for `Oc1cc(CN(CCCl)CCCl)c(O)cc1CN(CCCl)CCCl`?
Answer: T/C (dose: 0.31 mg/kg/injection, schedule: Q01DX010 (ip), vehicle: saline): 112 % of control; T/C [8]: 117 % of control; T/C [1]: 100 % of control

Question: What does the source list for `S=P(N1CCOCC1)(N1CC1)N1CC1`?
Answer: T/C [8]: 104 % of control and 109 % of control; T/C [1]: 100 % of control and 109 % of control; T/C (dose: 10.0 mg/kg/injection, schedule: Q01DX010 (ip), vehicle: saline): 100 % of control and 122 % of control; T/C (dose: 20.0 mg/kg/injection, schedule: Q01DX010 (ip), vehicle: saline): 86 % of control and 90 % of control

Question: For `O=C1CCC(N2C(=O)c3ccccc3C2=O)C(=O)N1` (stereo not given), which T/C [9] is on record?
Answer: 95 % of control

Question: What about the T/C [10] of the same molecule?
Answer: 91 % of control

Question: Which T/C (dose: 5.2 mg/kg/injection, schedule: Q01DX010 (ip), vehicle: saline) does the source give for `CCCNC(=NC)c1ccc(NC(=O)c2ccc(C(=O)Nc3ccc(C(=NC)NCCC)cc3)cc2)cc1` here?
Answer: 113 % of control

Question: And the T/C [11]?
Answer: 113 % of control

Question: What about the T/C [7] of the same molecule?
Answer: 118 % of control

Question: And the T/C (dose: 18.0 mg/kg/injection, schedule: Q01DX010 (ip), vehicle: saline)?
Answer: 100 % of control

Question: What does the source list for `CCCCn1cnc2c(=S)nc[nH]c21`?
Answer: T/C [12]: 107 % of control; T/C [13]: 96 % of control; T/C [14]: 100 % of control

Question: How did the T/C [11] turn out when `c1ccc(CNc2ncnc3[nH]ncc23)cc1` was run?
Answer: 92 % of control and 100 % of control

Question: What about the T/C [12] of the same molecule?
Answer: 88 % of control and 96 % of control

Question: What about the T/C [13] of the same molecule?
Answer: 100 % of control

Question: What about the T/C [14] of the same molecule?
Answer: 92 % of control

Question: With `O=C(Nc1ccc(C2=NCCN2)cc1)c1cccc(C(=O)Nc2ccc(C3=NCCN3)cc2)c1` as the molecule, how does the T/C [11] read?
Answer: 118 % of control

Question: And the T/C [12]?
Answer: 111 % of control

Question: What about the T/C [14] of the same molecule?
Answer: 158 % of control

Question: Which T/C (dose: 12.5 mg/kg/injection, schedule: Q01DX010 (sc), vehicle: steriod suspending solution) does the source give for `CC/C(=C(/CC)c1ccc(O)cc1)c1ccc(O)cc1` here?
Answer: 88 % of control and 111 % of control

Question: What about the T/C (dose: 25.0 mg/kg/injection, schedule: Q01DX010 (sc), vehicle: steriod suspending solution) of the same molecule?
Answer: 103 % of control

Question: What about the T/C (dose: 50.0 mg/kg/injection, schedule: Q01DX010 (sc), vehicle: steriod suspending solution) of the same molecule?
Answer: 100 % of control

Question: And the T/C (dose: 100.0 mg/kg/injection, schedule: Q01DX010 (sc), vehicle: steriod suspending solution)?
Answer: 103 % of control

Question: What does the source list for `O=C(Nc1ccc(C2=NCCN2)cc1)c1ccc(C(=O)Nc2ccc(C3=NCCN3)cc2)c(NC(=O)c2ccc(C(=O)Nc3cc(C(=O)Nc4ccc(C5=NCCN5)cc4)ccc3C(=O)Nc3ccc(C4=NCCN4)cc3)cc2)c1`?
Answer: T/C [3]: 109 % of control; T/C [15]: 109 % of control; T/C [16]: 104 % of control; T/C [17]: 104 % of control

Question: Which results are given for `O=C[C@@H](CO)O[C@H](C=O)n1cnc2c(=O)[nH]cnc21`?
Answer: T/C (dose: 180.0 mg/kg/injection, schedule: Q04DX003 (ip), vehicle: water): 210 % of control; T/C (dose: 300.0 mg/kg/injection, schedule: Q04DX003 (ip), vehicle: water): 323 % of control

Question: How did the T/C (dose: 3.6 mg/kg/injection, schedule: Q01DX001 (ip), vehicle: saline) turn out when `N[C@@H](Cc1ccc(N(CCCl)CCCl)cc1)C(=O)O` was run?
Answer: 184 % of control

Question: What about the T/C (dose: 6.0 mg/kg/injection, schedule: Q01DX001 (ip), vehicle: saline) of the same molecule?
Answer: 181 % of control

Question: What about the T/C (dose: 10.0 mg/kg/injection, schedule: Q01DX001 (ip), vehicle: saline) of the same molecule?
Answer: 191 % of control

Question: What about the T/C (dose: 16.7 mg/kg/injection, schedule: Q01DX001 (ip), vehicle: saline) of the same molecule?
Answer: 161 % of control

Question: With `CCn1cnc2c(=S)nc[nH]c21` as the molecule, how does the T/C (dose: 15.6 mg/kg/injection, schedule: Q01DX010 (ip), vehicle: saline) read?
Answer: 100 % of control and 109 % of control

Question: What about the T/C (dose: 31.3 mg/kg/injection, schedule: Q01DX010 (ip), vehicle: saline) of the same molecule?
Answer: 100 % of control

Question: And the T/C [9]?
Answer: 100 % of control

Question: And the T/C [10]?
Answer: 95 % of control

Question: For `C=CC(CN1CC1)OC(C)=O` (stereo not given), which T/C (dose: 2.0 mg/kg/injection, schedule: Q01DX010 (ip), vehicle: saline) is on record?
Answer: 116 % of control

Question: And the T/C [11]?
Answer: 123 % of control

Question: With `COC(=O)C[C@](O)(CCC(C)(C)O)C(=O)O[C@@H]1C(OC)=C[C@]23CCCN2CCc2cc4c(cc2[C@H]13)OCO4` as the molecule, how does the T/C (dose: 0.25 mg/kg/injection, schedule: Q01DX009 (ip), vehicle: saline) read?
Answer: 92 % of control

Question: What about the T/C (dose: 0.5 mg/kg/injection, schedule: Q01DX009 (ip), vehicle: saline) of the same molecule?
Answer: 100 % of control

Question: And the T/C (dose: 1.0 mg/kg/injection, schedule: Q01DX009 (ip), vehicle: saline)?
Answer: 88 % of control

Question: What does the source list for `C1CN1c1nc(N2CC2)nc(N2CC2)n1`?
Answer: T/C (dose: 0.13 mg/kg/injection, schedule: Q01DX010 (ip), vehicle: saline): 88 % of control and 108 % of control; T/C (dose: 0.5 mg/kg/injection, schedule: Q01DX010 (ip), vehicle: saline): 152 % of control and 228 % of control

Question: Which results are given for `O=C1C(NC(=O)C2CCCCC2)=C(N2CC2)C(=O)C(NC(=O)C2CCCCC2)=C1N1CC1`?
Answer: T/C [3]: 103 % of control; T/C [15]: 115 % of control; T/C [16]: 115 % of control; T/C [17]: 123 % of control

Question: Which results are given for `S=P(N1CC1)(N1CC1)N1CC1`?
Answer: T/C (dose: 0.75 mg/kg/injection, schedule: Q01DX010 (ip), vehicle: saline): 91 % of control and 95 % of control; T/C [4]: 91 % of control; T/C [5]: 95 % of control; T/C [6]: 91 % of control and 104 % of control
